In ChEMBL document CHEMBL1201862, “PubChem BioAssay data set” (2004):
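A five-concentration, 48-hour dose response in 96-well plates underlies each endpoint, interpolated linearly between surrounding concentrations. GI50 = concentration required for 50% inhibition of growth.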 Calls of active or inactive are those of the source. Cut-off read from the data, not from the text of the source: active = GI50 up to about 1.1 µM and inactive = higher.

Legend:
Assay in all cases: NCI anticancer screen, dose series, 48 h
OVCAR-3 = system: OVCAR-3
SR = system: SR
SF-539 = system: SF-539
HCT-116 = system: HCT-116
OVCAR-4 = system: OVCAR-4
IGROV-1 = system: IGROV-1
HT-29 = system: HT-29
OVCAR-8 = system: OVCAR-8
HCC 2998 = system: HCC 2998
UACC-257 = system: UACC-257
NCI-H522 = system: NCI-H522
NCI-H226 = system: NCI-H226
EKVX = system: EKVX
786-0 = system: 786-0
A498 = system: A498
LOX IMVI = system: LOX IMVI
ACHN = system: ACHN
U-251 = system: U-251

Measured: GI50

CC(=O)CN(Cc1cc(C)c2c(c1)c1ccccc1n2Cc1ccccc1)S(=O)(=O)c1ccc(C)cc1
inactive: OVCAR-3 > 100 µM | SR > 100 µM | SF-539 > 100 µM | HCT-116 > 100 µM | OVCAR-4 > 100 µM | IGROV-1 > 100 µM | HT-29 > 100 µM | OVCAR-8 > 100 µM | HCC 2998 > 100 µM | UACC-257 > 100 µM | NCI-H522 > 100 µM | NCI-H226 > 100 µM | EKVX > 100 µM | 786-0 > 100 µM

Cc1c(C(=O)O)n(C)c(=O)n(C)c1=O
inactive: A498 > 100 µM | OVCAR-3 > 100 µM | SF-539 > 100 µM | LOX IMVI > 100 µM | HCT-116 > 100 µM | OVCAR-4 > 100 µM | IGROV-1 > 100 µM | HT-29 > 100 µM | OVCAR-8 > 100 µM | ACHN > 100 µM | HCC 2998 > 100 µM | UACC-257 > 100 µM | NCI-H522 > 100 µM | U-251 > 100 µM | NCI-H226 > 100 µM | EKVX > 100 µM | 786-0 > 100 µM

COc1ccccc1CCc1cc(OC)c(OC)c(OC)c1
inactive: A498 57.9 µM | OVCAR-3 41.3 µM | SF-539 65.3 µM | LOX IMVI 40.3 µM | HCT-116 37.1 µM | OVCAR-4 40.6 µM | IGROV-1 49.9 µM | HT-29 41.5 µM | OVCAR-8 45.9 µM | ACHN 51.9 µM | UACC-257 45 µM | NCI-H522 26.8 µM | U-251 40.4 µM | NCI-H226 39.8 µM | EKVX 49.3 µM | 786-0 74.3 µM

COc1cc2c(cc1O)[C@H](C)C(c1ccc(OC)c(OC)c1)O2 (stereo partly specified)
inactive: A498 22.6 µM | OVCAR-3 5.66 µM | SF-539 4.85 µM | LOX IMVI 4.13 µM | HCT-116 3.6 µM | OVCAR-4 13 µM | IGROV-1 2.04 µM | HT-29 18 µM | OVCAR-8 13.2 µM | ACHN 10.6 µM | HCC 2998 7.6 µM | UACC-257 10.9 µM | NCI-H522 9.23 µM | U-251 5.87 µM | NCI-H226 12.4 µM | EKVX 17.5 µM | 786-0 11.3 µM

COc1ccc(NC(=O)CSc2nnc(-c3ccc(NC(C)=O)cc3)o2)cc1
inactive: A498 15.5 µM | OVCAR-3 17.8 µM | SF-539 > 10 µM | LOX IMVI 10.9 µM | HCT-116 14.6 µM | OVCAR-4 15.7 µM | IGROV-1 15.5 µM | HT-29 11.1 µM | OVCAR-8 20.7 µM | ACHN 16.7 µM | HCC 2998 19.7 µM | UACC-257 21.5 µM | NCI-H522 14.5 µM | U-251 15.7 µM | NCI-H226 24.3 µM | EKVX 23 µM | 786-0 17.2 µM

COC(=O)c1c2c(cc3c1CC1(Cc4cc5c(c(C(C)=O)c4C1)CCC5)C3)CCC2 (stereo unspecified)
inactive: OVCAR-3 > 100 µM | SR 43.7 µM | SF-539 34.6 µM | LOX IMVI 50.1 µM | HCT-116 28.6 µM | OVCAR-4 36.7 µM | IGROV-1 72.8 µM | HT-29 40.3 µM | OVCAR-8 54.5 µM | ACHN 40 µM | HCC 2998 > 100 µM | UACC-257 34.9 µM | NCI-H522 17 µM | U-251 78.3 µM | 786-0 42.4 µM

COc1cc2cccc(NC(=O)c3cc(OC)c(OC)c(OC)c3Br)c2cc1OC
inactive: A498 30.5 µM | OVCAR-3 13.4 µM | SF-539 15.4 µM | HCT-116 11.9 µM | OVCAR-4 9.02 µM | IGROV-1 14.4 µM | HT-29 21.8 µM | OVCAR-8 12.9 µM | ACHN 11.5 µM | HCC 2998 28.8 µM | UACC-257 3.85 µM | NCI-H522 11.8 µM | U-251 22.3 µM | EKVX 21.1 µM | 786-0 29.2 µM

OC1C2CCC1C1C3C=CC(C3)C21 (stereo unspecified)
inactive: OVCAR-3 > 100 µM | SR 54.7 µM | LOX IMVI 86.5 µM | HCT-116 79.4 µM | OVCAR-4 > 100 µM | IGROV-1 > 100 µM | HT-29 > 100 µM | OVCAR-8 > 100 µM | ACHN 95.9 µM | UACC-257 > 100 µM | NCI-H522 50.9 µM | U-251 > 100 µM | NCI-H226 58.5 µM | EKVX > 100 µM | 786-0 > 100 µM

N#Cc1c(-c2ccccc2)cc(-c2cccs2)c(C#N)c1N
inactive: A498 > 100 µM | OVCAR-3 > 100 µM | SF-539 > 100 µM | LOX IMVI > 100 µM | HCT-116 > 100 µM | OVCAR-4 > 100 µM | IGROV-1 > 10 µM | HT-29 > 100 µM | OVCAR-8 > 100 µM | ACHN > 100 µM | HCC 2998 > 100 µM | UACC-257 > 100 µM | NCI-H522 > 100 µM | U-251 > 100 µM | EKVX > 100 µM | 786-0 > 100 µM

Clc1ccc(SC(/C=C/NNC2=NN=C(c3ccccc3)C(c3ccccc3)N2)c2ccccc2)cc1 (stereo unspecified)
inactive: A498 28.2 µM | OVCAR-3 11.8 µM | SF-539 26.4 µM | LOX IMVI 21.9 µM | HCT-116 16.1 µM | OVCAR-4 17.9 µM | IGROV-1 49.3 µM | HT-29 15.1 µM | OVCAR-8 28.2 µM | ACHN 21 µM | HCC 2998 19.7 µM | UACC-257 21.7 µM | NCI-H522 17.9 µM | U-251 31.2 µM | NCI-H226 13.4 µM | EKVX 26.9 µM | 786-0 28.2 µM

COCCOCOc1ccc(OCOCCOC)c2c1C(=O)c1ccccc1C2=O
inactive: A498 68.7 µM | OVCAR-3 36.9 µM | SF-539 36.3 µM | LOX IMVI 27.9 µM | HCT-116 29.4 µM | OVCAR-4 59.4 µM | IGROV-1 99.1 µM | HT-29 37.2 µM | OVCAR-8 45.4 µM | ACHN 62.7 µM | HCC 2998 61.7 µM | UACC-257 42.8 µM | U-251 41.9 µM | NCI-H226 90.2 µM | EKVX 38.3 µM | 786-0 92.9 µM

Cc1nc2ccccc2c(=O)n1/N=C(\N=N\c1ccccc1)c1ccccc1Cl
inactive: A498 20.6 µM | OVCAR-3 27 µM | SF-539 23.5 µM | LOX IMVI 66.1 µM | HCT-116 > 10 µM | OVCAR-4 41 µM | IGROV-1 39.9 µM | HT-29 43.8 µM | OVCAR-8 59.7 µM | ACHN 33.3 µM | HCC 2998 38.2 µM | UACC-257 75 µM | NCI-H522 30.2 µM | U-251 40.6 µM | NCI-H226 14.5 µM | EKVX 22.4 µM | 786-0 44.8 µM

NC(=O)/C=C/C(=O)O
inactive: SR > 5000 µM | SF-539 > 5000 µM | LOX IMVI > 5000 µM | HCT-116 > 5000 µM | OVCAR-4 > 5000 µM | IGROV-1 > 5000 µM | HT-29 > 5000 µM | OVCAR-8 > 5000 µM | ACHN > 5000 µM | UACC-257 > 5000 µM | NCI-H522 > 5000 µM | U-251 > 5000 µM | NCI-H226 > 5000 µM | 786-0 > 5000 µM
